# Measurements from patent US20110312934A1, “2-ALKYL-6-CYCLOAMINO-3-(PYRIDIN-4-YL)IMIDAZO[1,2-B]-PYRIDAZINE DERIVATIVES, PREPARATION THEREOF, AND THERAPEUTIC APPLICATION THEREOF” (SANOFI-AVENTIS, priority 2008, published 2011).
# Counter-ions that a name gives are not always drawn.
row,melting point,SMILES
1,120 °C (dec.),Cc1nc2ccc(N3C[C@@H]4C[C@H]3CN4)nn2c1-c1ccncc1
2,> 300 °C,Cc1cc(-c2c(C)nc3ccc(N4C[C@@H]5C[C@@H]4CN5)nn23)ccn1 (as salt: HBr)
3,> 295 °C,Cc1cc(-c2c(C)nc3ccc(N4CCC5(CCCNC5)CC4)nn23)ccn1 (as salt: HCl)
4,> 255 °C,Cc1nc2ccc(N3CCC4(CC3)CNCCO4)nn2c1-c1ccncc1 (as salt: HCl)
5,> 300 °C,Cc1nc2ccc(N3CCC4(CC3)CNCCO4)nn2c1-c1ccnc(N)c1 (as salt: HCl)
6,319 to 321 °C,"Cc1nc2ccc(N3CCNCC3)nn2c1-c1ccncc1 (as salt: HCl) [Compound 2, 2-Methyl-6-piperazin-1-yl-3-pyridin-4-yl-imidazo[1,2-b]pyridazine]"
7,305 to 307 °C,"CCN1CCN(c2ccc3nc(C)c(-c4ccncc4)n3n2)CC1 (as salt: HCl) [Compound 42, 6-(4-Ethylpiperazin-1-yl)-2-methyl-3-pyridin-4-ylimidazo[1,2-b]pyridazine]"
8,343 to 345 °C,"Cc1nc2ccc(N3C[C@@H](C)N[C@@H](C)C3)nn2c1-c1ccncc1 (as salt: HCl) [Compound 54, 6-(cis-3,5-Dimethylpiperazin-1-yl)-2-methyl-3-pyridin-4-ylimidazo[1,2-b]pyridazine]"
9,214 to 221 °C,"Cc1cc(-c2c(C)nc3ccc(N4CC5CNCC5C4)nn23)ccn1 (stereo not shown) (as salt: HCl) [Compound 67, 6-Hexahydropyrrolo[3,4-c]pyrrol-2(1H)-yl-2-methyl-3-(2-methylpyridin-4-yl)-imidazo[1,2-b]-pyridazine]"
10,139 to 141 °C,"Cc1nc2ccc(N3CCNCC3)nn2c1-c1ccnc(F)c1 [Compound 3, 3-(2-Fluoropyridin-4-yl)-2-methyl-6-piperazin-1-ylimidazo[1,2-b]pyridazine]"
11,199 to 201 °C,"CC(C)c1nc2ccc(N3CCNCC3)nn2c1-c1ccncc1 [Compound 9, 2-Isopropyl-6-piperazin-1-yl-3-pyridin-4-ylimidazo[1,2-b]pyridazine]"
12,169 to 171 °C,"c1cc(-c2c(C3CC3)nc3ccc(N4CCNCC4)nn23)ccn1 [Compound 11, 2-Cyclopropyl-6-piperazin-1-yl-3-pyridin-4-ylimidazo[1,2-b]pyridazine]"
13,92 to 119 °C,"CC(C)Cc1nc2ccc(N3CCNCC3)nn2c1-c1ccncc1 [Compound 16, 2-Isobutyl-6-piperazin-1-yl-3-pyridin-4-ylimidazo[1,2-b]pyridazine]"
14,146 to 148 °C,"Cc1nc2ccc(N3CCN[C@H](C)C3)nn2c1-c1ccncc1 [Compound 26, 2-Methyl-6-((R)-3-methylpiperazin-1-yl)-3-pyridin-4-ylimidazo[1,2-b]pyridazine]"
15,157 to 159 °C,"Cc1cc(-c2c(C)nc3ccc(N4CCN[C@H](C)C4)nn23)ccn1 [Compound 27, 2-Methyl-6-((R)-3-methylpiperazin-1-yl)-3-(2-methylpyridin-4-yl)imidazo[1,2-b]pyridazine]"
16,172 to 177 °C,"Cc1nc2ccc(N3CCN[C@H](C)C3)nn2c1-c1ccnc(N)c1 [Compound 28, 4-[2-Methyl-6-((R)-3-methylpiperazin-1-yl)imidazo[1,2-b]pyridazin-3-yl]pyridin-2-ylamine]"
17,146 to 148 °C,"Cc1nc2ccc(N3CCN[C@@H](C)C3)nn2c1-c1ccncc1 [Compound 35, 2-Methyl-6-((S)-3-methylpiperazin-1-yl)-3-pyridin-4-ylimidazo[1,2-b]pyridazine]"
18,106 to 108 °C,"COc1cc(-c2c(C)nc3ccc(N4CCN[C@@H](C)C4)nn23)ccn1 [Compound 36, 3-(2-Methoxypyridin-4-yl)-2-methyl-6-((S)-3-methylpiperazin-1-yl)imidazo[1,2-b]pyridazine]"
19,172 to 177 °C,"Cc1nc2ccc(N3CCN[C@@H](C)C3)nn2c1-c1ccnc(N)c1 [Compound 38, 4-[2-Methyl-6-((S)-3-methylpiperazin-1-yl)imidazo[1,2-b]pyridazin-3-yl]pyridin-2-ylamine]"
20,150 to 152 °C,"Cc1nc2ccc(N3CCN(C)CC3)nn2c1-c1ccncc1 [Compound 39, 2-Methyl-6-(4-methylpiperazin-1-yl)-3-pyridin-4-ylimidazo[1,2-b]pyridazine]"

row,melting point,SMILES
1,182 to 184 °C,"CN1CCN(c2ccc3nc(C(F)(F)F)c(-c4ccncc4)n3n2)CC1 [Compound 40, 6-(4-Methylpiperazin-1-yl)-3-pyridin-4-yl-2-trifluoromethylimidazo[1,2-b]pyridazine]"
2,237 to 240 °C,"Cc1nc2ccc(N3CCNC(CO)C3)nn2c1-c1ccncc1 (stereo not shown) [Compound 41, [4-(2-Methyl-3-pyridin-4-ylimidazo[1,2-b]pyridazin-6-yl)piperazin-2-yl]methanol]"
3,144 to 146 °C,"CCN1CCN(c2ccc3nc(C)c(-c4ccnc(C)c4)n3n2)CC1 [Compound 43, 6-(4-Ethylpiperazin-1-yl)-2-methyl-3-(2-methylpyridin-4-yl)imidazo[1,2-b]pyridazine]"
4,97 to 99 °C,"Cc1cc(-c2c(C)nc3ccc(N4CCN(C(C)C)CC4)nn23)ccn1 [Compound 45, 6-(4-Isopropylpiperazin-1-yl)-2-methyl-3-(2-methylpyridin-4-yl)imidazo[1,2-b]pyridazine]"
5,122 to 132 °C,"Cc1nc2ccc(N3CCN(C4CCC4)CC3)nn2c1-c1ccncc1 [Compound 47, 6-(4-Cyclobutylpiperazin-1-yl)-2-methyl-3-pyridin-4-ylimidazo[1,2-b]pyridazine]"
6,132 to 144 °C,"Cc1nc2ccc(N3CCN(C4CCC4)CC3)nn2c1-c1ccnc(N)c1 [Compound 48, 4-[6-(4-Cyclobutylpiperazin-1-yl)-2-methylimidazo[1,2-b]pyridazin-3-yl]pyridin-2-ylamine]"
7,151 to 156 °C,"Cc1nc2ccc(N3CCNC(C)(C)C3)nn2c1-c1ccnc(CN)c1 [Compound 50, {4-[6-(3,3-Dimethylpiperazin-1-yl)-2-methylimidazo[1,2-b]pyridazin-3-yl]pyridin-2-yl}methylamine]"
8,127 to 129 °C,"Cc1cc(-c2c(C)nc3ccc(N4C[C@@H](C)N[C@@H](C)C4)nn23)ccn1 [Compound 55, 6-(cis-3,5-Dimethylpiperazin-1-yl)-2-methyl-3-(2-methylpyridin-4-yl)imidazo[1,2-b]pyridazine]"
9,213 to 215 °C,"Cc1nc2ccc(N3C[C@@H](C)N[C@@H](C)C3)nn2c1-c1ccnc(N)c1 [Compound 56, 4-[6-(cis-3,5-Dimethylpiperazin-1-yl)-2-methylimidazo[1,2-b]pyridazin-3-yl]pyridin-2-ylamine]"
10,111 to 126 °C,"CNc1cc(-c2c(C)nc3ccc(N4C[C@@H](C)N[C@@H](C)C4)nn23)ccn1 [Compound 57, {4-[6-(cis-3,5-Dimethylpiperazin-1-yl)-2-methylimidazo[1,2-b]pyridazin-3-yl]pyridin-2-yl}-methylamine]"
11,131 to 133 °C,"Cc1cc(-c2c(C)nc3ccc(N4C[C@H]5CCN[C@@H]5C4)nn23)ccn1 [Compound 65, (R,S)-6-(Hexahydropyrrolo[3,4-b]pyrrol-5(1H)-yl)-2-methyl-3-(2-methylpyridin-4-yl)imidazo[1,2-b]pyridazine]"
12,> 155 °C (dec.),"Cc1nc2ccc(N3CC4CNCC4C3)nn2c1-c1ccnc(N)c1 (stereo not shown) [Compound 68, {4-[6-(Hexahydropyrrolo[3,4-c]pyrrol-2(1H)-yl)-2-methylimidazo[1,2-b]pyridazin-3-yl]pyridin-2-yl}amine]"
13,172 to 175 °C,"Cc1nc2ccc(N3CC4CN(C(C)C)CC4C3)nn2c1-c1ccncc1 (stereo not shown) [Compound 72, 6-(−5-Isopropylhexahydropyrrolo[3,4-c]pyrrol-2(1H)-yl)-2-methyl-3-pyridin-4-ylimidazo[1,2-b]-pyridazine]"
14,215 to 218 °C,"Cc1nc2ccc(N3CC4CN(C(C)C)CC4C3)nn2c1-c1ccnc(N)c1 (stereo not shown) [Compound 73, 4-[6-(−5-Isopropylhexahydropyrrolo[3,4-c]pyrrol-2(1H)-yl)-2-methylimidazo[1,2-b]pyridazin-3-yl]pyridin-2-ylamine]"
15,95 °C,"COc1cc(-c2c(C)nc3ccc(N4CC5CNCC5C4)nn23)ccn1 (stereo not shown) [Compound 74, 6-Hexahydropyrrolo[3,4-c]pyrrol-2(1H)-yl-3-(2-methoxypyridin-4-yl)-2-methylimidazo[1,2-b]-pyridazine]"
16,130 to 135 °C,"Cc1nc2ccc(N3C[C@H]4CCCN[C@@H]4C3)nn2c1-c1ccncc1 [Compound 75, (R,S)-2-Methyl-6-(octahydropyrrolo[3,4-b]pyridin-6-yl)-3-pyridin-4-ylimidazo[1,2-b]-pyridazine]"
17,117 to 120 °C,"Cc1cc(-c2c(C)nc3ccc(N4CCC5(CC4)CNC5)nn23)ccn1 [Compound 76, 6-(2,7-Diazaspiro[3.5]non-7-yl)-2-methyl-3-(2-methylpyridin-4-yl)imidazo[1,2-b]pyridazine]"
18,150 to 153 °C,"Cc1nc2ccc(N3CCC(N4CCCC4)CC3)nn2c1-c1ccncc1 [Compound 82, 2-Methyl-3-pyridin-4-yl-6-(4-pyrrolidin-1-ylpiperidin-1-yl)imidazo[1,2-b]pyridazine]"
19,124 to 126 °C,"Cc1cc(-c2c(C)nc3ccc(N4CCC(N5CCCC5)CC4)nn23)ccn1 [Compound 83, 2-Methyl-3-(2-methylpyridin-4-yl)-6-(4-pyrrolidin-1-ylpiperidin-1-yl)imidazo[1,2-b]pyridazine]"
20,129 to 138 °C,"Cc1nc2ccc(N3CCC(N4CCCC4)CC3)nn2c1-c1ccnc(N)c1 [Compound 84, 4-[2-Methyl-6-(4-pyrrolidin-1-ylpiperidin-1-yl)imidazo[1,2-b]pyridazin-3-yl]pyridin-2-ylamine]"
